PMC8835475, “Salviolone from Salvia miltiorrhiza Roots Impairs Cell Cycle Progression, Colony Formation, and Metalloproteinase-2 Activity in A375 Melanoma Cells: Involvement of P21(Cip1/Waf1) Expression and STAT3 Phosphorylation” (International Journal of Molecular Sciences, 2022)

Legend:
A375 melanoma cells = assay: Soft agar colony formation assay; type: cell-based, human; conditions: A375, 5 and 10 µM, 21-day culture
Experimental: Before seeding, 6-well plates were prepared with soft agar, as follows: the bottom layer was filled with 1% low-gelling temperature agarose and 2X DMEM, supplemented with 20% FBS and 2% Antibiotic Antimycotic Solution (Gibco, BRL Invitrogen Corp., Carlsbad, CA, USA). After 30 min, cells (5000 cell/well) were suspended in 0.6% agarose and 2X DMEM supplemented with 20% FBS and 2% Antibiotic Antimycotic Solution (Gibco, BRL Invitrogen Corp., Carlsbad, CA, USA) and placed over the 0.5% agarose layer. Then, either cryptotanshinone (4) or salviolone (7) at 5–10 μM was added directly into each well and 100 μL of fresh media was added twice a week for 3 weeks. The semi-solid cultures were performed in triplicate and images captured.

ERK1/2 = assay: Immunoblot of total ERK1/2 in A375 cells; type: cell-based, human; conditions: A375, 20 µM, 72 h
Experimental: A375 cells were seeded in 6 cm Petri dishes (190 300 cell/dish) and treated with different compounds at 10 or 20 μM. After 48- or 72-h treatment, the cells were scraped using warm 1× sample buffer (2% SDS, 10% glycerol, 50 mM Tris-HCl, 1.75% β-mercaptoethanol, and bromophenol blue) and boiled at 99 °C for 10 min. Total protein extracts were kept at −80 °C until use.
Protein extracts were analyzed with a 7.5 or 10% polyacrylamide SDS-PAGE and transferred to a polyvinylidene difluoride membrane (PVDF, Thermo Fisher Scientific, Waltham, MA, USA). The membranes were blocked at RT for 1 h with TBST buffer (10 mM Tris-HCl pH 7.5, 100 mM NaCl, 0.1% Tween20) containing 4% Milk (Formulat). […] Immuno-detection was carried out with an ECL kit (GE-Healthcare, Little Chalfont, UK), and the chemiluminescence signals were detected with ChemiDoc (Bio-Rad, Hercules, CA, USA).

Structure (SMILES) | number and dimension of colonies formed on soft agar (A375 melanoma cells) | total protein amount of ERK1/2 (ERK1/2)
C[C@H]1COC2=C1C(=O)C(=O)c1c2ccc2c1CCCC2(C)C [Compound 4, cryptotanshinone] | decreased | 
Cc1cc2ccc3c(c2cc(O)c1=O)CCCC3(C)C [Compound 7, salviolone] | decreased | increased
